Measured values from patent publication US10751381B2, “Composition for preventing, relieving or treating colitis, containing complex extracts” (UNIVERSITY-INDUSTRY COOPERATION GROUP OF KYUNG HEE …, priority 2013, dated 2020).

Tests used:
Type in all cases: in vivo, mice (C57BL/6)
IL-6 = IL-6 expression in colon tissue (ELISA), TNBS acute colitis, primary experiment; settings: TNBS-treated mice, 10 mg/kg orally once daily for 3 days, percentage to normal group
Description: (§1) Among the experimental groups, one group was set as a normal group, and the experimental animals in other groups were induced with acute colitis by 2,4,6-trinitrobenzenesulfonic acid (TNBS). In detail, after lightly anesthetizing the experimental animals with ether, 0.1 mL of the solution prepared by mixing 2.5 g of 2,4,6-Trinitrobenzene sulfonic acid (NBS) solution with 50% ethanol was injected into the colon through the anus using a syringe having 1 mL volume and an oval point, respectively; the syringe was vertically picked up, and then, maintained for 30 seconds to induce inflammation. Meanwhile, for the normal group, 0.1 mL of normal saline solution was orally administered. Subsequently, from the following day, the sample dissolved in normal saline solution was orally administered at a predetermined volume once daily for 3 days. […] In this case, as a drug sample, the experiments using the butanol-soluble fraction of the Anemarrhena asphodeloides Bunge extract, mangiferin, and a combined extract were separately performed with time intervals, respectively, and the effects of the drug samples on preventing or treating colitis were reasonably analyzed based on the group supplied with normal saline solution instead of a specific drug in the model animals not treated with TNBS, for each of the experiments. […]

[1] = system: model animals with acute colitis induced by TNBS; assay: Acute colitis induced by TNBS in mice, secondary experiment (extract-based and fraction-based): weight change, colon length, macroscopic score; settings: TNBS-treated mice, percentage to normal group
Description: All the mice were bred under the controlled environmental conditions of 50±10% of humidity at a temperature of 20° C. to 22° C., and the lighting was provided by repeatedly turning on for 12 hours followed by turning off for 12 hours. A feed for a standard experiment (Samyang, Korea) was used as a feed, and ad libitum access to water was allowed. In all experiments, each group consisted of 6 mice. […] Meanwhile, for the normal group, 0.1 mL of normal saline solution was orally administered. Subsequently, from the following day, the sample dissolved in normal saline solution was orally administered at a predetermined volume once daily for 3 days. On the following day after completing the sample administration, the experimental animals were suffocated to death with carbon dioxide, and the colon from the appendix to the region immediately before the anus was removed from the colon region. In this case, the experiments, where an ethanol extract of Anemarrhena asphodeloides Bunge, an ethanol extract of Coptis chinensis, a combined extract of the ethanol extract of Anemarrhena asphodeloides Bunge and the ethanol extract of Coptis chinensis, and a combined extract of a water extract of Anemarrhena asphodeloides Bunge and a water extract of Coptis chinensis were used as drug samples (hereinafter, “extract-based experiment”), and the experiments, where a butanol-soluble fraction of the ethanol extract of Anemarrhena asphodeloides Bunge, a butanol-soluble fraction of the ethanol extract of Coptis chinensis, and a combined extract of the butanol-soluble fraction of the ethanol extract of Anemarrhena asphodeloides Bunge and the butanol-soluble fraction of the ethanol extract of Coptis chinensis were used as drug samples (hereinafter, “fraction-based experiment”) were separately performed with time intervals, respectively. Considering the characteristics of animal experiments, it is reasonable that the effects of the drug samples on preventing or treating colitis be evaluated within each of the experiments and that the normal group supplied with saline solution instead of a specific drug sample, for the experimental animals not treated with TNBS, be used as a standard. The sample administration to the model animals with colitis induced by TNBS was stopped, and on the following day, the weight of the experimental animals was measured were and then compared with their initial weight to calculate the change in the amount of weight. The scores on the removed colons were estimated by observing the appearances and the length of the colons according to the criteria (Hollenbach et al., the criteria on the levels of colon in 2005) listed in Table 3. In this case, as a positive control group, the group administered with Mesalazine® (Sigma) was used. Additionally, a portion of the content in the colon was collected to analyze the intestinal microorganisms, and then stored in a freezer maintained at −80° C. From the tissues of colon, the content in the colon was completely removed and then the tissues of colon were washed with normal saline solution.

TNF-α = TNF-α expression in colon tissue (ELISA), TNBS acute colitis, primary experiment; settings: TNBS-treated mice, 10 mg/kg orally once daily for 3 days, percentage to normal group
Description: as §1

Myeloperoxidase (MPO) [2] = assay: MPO activity in colon tissue (ELISA kit), TNBS acute colitis, primary experiment; settings: TNBS-treated mice, 10 mg/kg orally once daily for 3 days, percentage to normal group
Description: Among the experimental groups, one group was set as a normal group, and the experimental animals in other groups were induced with acute colitis by 2,4,6-trinitrobenzenesulfonic acid (TNBS). In detail, after lightly anesthetizing the experimental animals with ether, 0.1 mL of the solution prepared by mixing 2.5 g of 2,4,6-Trinitrobenzene sulfonic acid (NBS) solution with 50% ethanol was injected into the colon through the anus using a syringe having 1 mL volume and an oval point, respectively; the syringe was vertically picked up, and then, maintained for 30 seconds to induce inflammation. Meanwhile, for the normal group, 0.1 mL of normal saline solution was orally administered. […] In this case, as a drug sample, the experiments using the butanol-soluble fraction of the Anemarrhena asphodeloides Bunge extract, mangiferin, and a combined extract were separately performed with time intervals, respectively, and the effects of the drug samples on preventing or treating colitis were reasonably analyzed based on the group supplied with normal saline solution instead of a specific drug in the model animals not treated with TNBS, for each of the experiments.
100 mg of colon tissues were homogenized after adding 200 μL of lysis buffer thereto. […] Subsequently, 100 μL of a stop solution was added to terminate the reaction, and the absorbance was measured at 450 nm using an ELISA reader.

IL-10 = IL-10 expression in colon tissue (ELISA), TNBS acute colitis, primary experiment; settings: TNBS-treated mice, 10 mg/kg orally once daily for 3 days, percentage to normal group
Description: as §1

[3] = system: model animals with acute colitis induced by TNBS; assay: Acute colitis induced by TNBS in mice, primary experiment: weight change, colon appearance score, colon length; settings: TNBS-treated mice, 10 mg/kg orally once daily for 3 days, percentage to normal group (saline, no TNBS)
Description: All the mice were bred under the controlled environmental conditions of 50±10% of humidity at a temperature of 20° C. to 22° C., and the lighting was provided by repeatedly turning on for 12 hours followed by turning off for 12 hours. A feed for a standard experiment (Samyang, Korea) was used as a feed, and ad libitum access to water was allowed. In all experiments, each group consisted of 6 mice. […] Meanwhile, for the normal group, 0.1 mL of normal saline solution was orally administered. Subsequently, from the following day, the sample dissolved in normal saline solution was orally administered at a predetermined volume once daily for 3 days. On the following day after completing the sample administration, the experimental animals were suffocated to death with carbon dioxide, and the colon from the appendix to the region immediately before the anus was removed from the colon region. In this case, as a drug sample, the experiments using the butanol-soluble fraction of the Anemarrhena asphodeloides Bunge extract, mangiferin, and a combined extract were separately performed with time intervals, respectively, and the effects of the drug samples on preventing or treating colitis were reasonably analyzed based on the group supplied with normal saline solution instead of a specific drug in the model animals not treated with TNBS, for each of the experiments. The sample administration to the model animals with colitis induced by TNBS was stopped, and on the following day, the weight of the experimental animals was measured, and the measured weight was compared with the initial weight to calculate the amount of change in weight. The scores about the removed colons were estimated by observing the appearances and the length of the colons according to the following criteria (Hollenbach, et al., the criteria about the colitis level in 2005) as listed in Table 1. In this case, as a positive control group, the group administered with Mesalazine® (Sigma) was used. […]

IL-1β = IL-1β expression in colon tissue (ELISA), TNBS acute colitis, primary experiment; settings: TNBS-treated mice, 10 mg/kg orally once daily for 3 days, percentage to normal group
Description: as §1

Myeloperoxidase (MPO) [4] = assay: MPO activity in colon tissue (ELISA kit), TNBS acute colitis, secondary experiment; settings: TNBS-treated mice, percentage to normal group
Description: Among the experimental groups, one group was set as a normal group, and the experimental animals in other groups were induced with acute colitis by 2,4,6-trinitrobenzenesulfonic acid (TNBS). In detail, after lightly anesthetizing the experimental animals with ether, 0.1 mL of the solution prepared by mixing 2.5 g of 2,4,6-Trinitrobenzene sulfonic acid (NBS) solution with 50% ethanol was injected into the colon through the anus using a syringe having 1 mL volume and an oval point, respectively; the syringe was vertically picked up, and then, maintained for 30 seconds to induce inflammation. Meanwhile, for the normal group, 0.1 mL of normal saline solution was orally administered. Subsequently, from the following day, the sample dissolved in normal saline solution was orally administered at a predetermined volume once daily for 3 days. On the following day after completing the sample administration, the experimental animals were suffocated to death with carbon dioxide, and the colon from the appendix to the region immediately before the anus was removed from the colon region. In this case, the experiments, where an ethanol extract of Anemarrhena asphodeloides Bunge, an ethanol extract of Coptis chinensis, a combined extract of the ethanol extract of Anemarrhena asphodeloides Bunge and the ethanol extract of Coptis chinensis, and a combined extract of a water extract of Anemarrhena asphodeloides Bunge and a water extract of Coptis chinensis were used as drug samples (hereinafter, “extract-based experiment”), and the experiments, where a butanol-soluble fraction of the ethanol extract of Anemarrhena asphodeloides Bunge, a butanol-soluble fraction of the ethanol extract of Coptis chinensis, and a combined extract of the butanol-soluble fraction of the ethanol extract of Anemarrhena asphodeloides Bunge and the butanol-soluble fraction of the ethanol extract of Coptis chinensis were used as drug samples (hereinafter, “fraction-based experiment”) were separately performed with time intervals, respectively. Considering the characteristics of animal experiments, it is reasonable that the effects of the drug samples on preventing or treating colitis be evaluated within each of the experiments and that the normal group supplied with saline solution instead of a specific drug sample, for the experimental animals not treated with TNBS, be used as a standard.
100 mg of colon tissues were homogenized after adding 200 μL of lysis buffer thereto. The homogenized colon tissues were centrifuged at 4° C. at a rate of 13000 rpm for 15 minutes, the supernatant therefrom was recovered, and the MPO activity was measured using a mouse MPO assay ELISA kit (Hbt HK210, USA). 100 μL of the supernatant was added into a 96-well plate and reacted at room temperature for 1 hour. Upon completion of the reaction, the plate was emptied by overturning, repeatedly washed three times with 200 μL of washing buffer, added with 100 μL of diluted tracer, and then the reaction was allowed to perform at room temperature for 1 hour. Upon completion of the reaction, the plate was emptied by overturning, and each well of the plate was washed using 200 μL of washing buffer. After repeatedly performing the washing process three times using 200 μL of washing buffer, 100 μL of diluted streptavidin-peroxidase conjugate was added thereto, and the reaction was allowed to perform at room temperature for 1 hour. Upon completion of the reaction, the plate was emptied by overturning, and each well of the plate was washed with 200 μL of washing buffer. After repeatedly washing three times using 200 μL of washing buffer, 100 μL of TMB substrate solution was added thereto, the plate was wrapped with an aluminum foil to block out the light, and the reaction was performed at room temperature for 30 minutes. Subsequently, 100 μL of a stop solution was added to terminate the reaction, and the absorbance was measured at 450 nm using an ELISA reader.

[5] = extract-based experiment, 10 mg/kg orally once daily for 3 days
[6] = extract-based experiment, 20 mg/kg orally once daily for 3 days
[7] = extract-based experiment, 50 mg/kg orally once daily for 3 days
[8] = fraction-based experiment, 10 mg/kg orally once daily for 3 days
[9] = fraction-based experiment, 20 mg/kg orally once daily for 3 days
[10] = fraction-based experiment, 50 mg/kg orally once daily for 3 days

**Q.** `Nc1ccc(O)c(C(=O)O)c1` [Mesalazine ®, Mesalazine] was tested. Which IL-6 (IL-6) did it give?
**A.** Its IL-6 is 190.0%.

**Q.** What about the Body weight [1, 5] of the same compound?
**A.** Its Body weight is 59.46%.

**Q.** What about the Colon length [1, 5] of the same compound?
**A.** Its Colon length is 89.06%.

**Q.** What about the Macroscopic score [1, 5] of the same compound?
**A.** The Macroscopic score was 420%.

**Q.** And the Body weight [1, 6]?
**A.** Its Body weight is 78.38%.

**Q.** And the Colon length [1, 6]?
**A.** Its Colon length is 90.63%.

**Q.** What about the Macroscopic score [1, 6] of the same compound?
**A.** The Macroscopic score was 420%.

**Q.** And the Body weight [1, 7]?
**A.** Its Body weight is 75.68%.

**Q.** What about the Colon length [1, 7] of the same compound?
**A.** Its Colon length is 90.63%.

**Q.** What about the Macroscopic score [1, 7] of the same compound?
**A.** Its Macroscopic score is 450%.

**Q.** And the Body weight [1, 8]?
**A.** The Body weight was 59.46%.

**Q.** And the Colon length [1, 8]?
**A.** Its Colon length is 90.48%.

**Q.** And the Macroscopic score [1, 8]?
**A.** Its Macroscopic score is 500%.

**Q.** What about the Body weight [1, 9] of the same compound?
**A.** The Body weight was 78.38%.

**Q.** And the Colon length [1, 9]?
**A.** The Colon length was 92.06%.

**Q.** And the Macroscopic score [1, 9]?
**A.** The Macroscopic score was 500%.

**Q.** And the Body weight [1, 10]?
**A.** Its Body weight is 75.68%.

**Q.** And the Colon length [1, 10]?
**A.** The Colon length was 92.06%.

**Q.** What about the Macroscopic score [1, 10] of the same compound?
**A.** The Macroscopic score was 600%.

**Q.** What about the TNF-α (TNF-α) of the same compound?
**A.** The TNF-α was 304.1%.

**Q.** And the MPO activity (Myeloperoxidase (MPO) [2])?
**A.** The MPO activity was 1111.6%.

**Q.** And the IL-10 (IL-10)?
**A.** Its IL-10 is 53.1%.

**Q.** And the Body weight [3]?
**A.** Its Body weight is 93.2%.

**Q.** And the Colon length [3]?
**A.** The Colon length was 89.9%.

**Q.** And the Macroscopic score [3]?
**A.** The Macroscopic score was 550.5%.

**Q.** What about the IL-1β (IL-1β) of the same compound?
**A.** The IL-1β was 618.4%.

**Q.** What about the MPO activity (Myeloperoxidase (MPO) [4]; [5]) of the same compound?
**A.** The MPO activity was 360%.

**Q.** And the MPO activity (Myeloperoxidase (MPO) [4]; [6])?
**A.** Its MPO activity is 360%.

**Q.** What about the MPO activity (Myeloperoxidase (MPO) [4]; [7]) of the same compound?
**A.** The MPO activity was 390%.

**Q.** And the MPO activity (Myeloperoxidase (MPO) [4]; [8])?
**A.** The MPO activity was 300%.

**Q.** And the MPO activity (Myeloperoxidase (MPO) [4]; [9])?
**A.** Its MPO activity is 300%.

**Q.** What about the MPO activity (Myeloperoxidase (MPO) [4]; [10]) of the same compound?
**A.** Its MPO activity is 317%.
